Data from patent publication US20200283384A1, “ANTIBACTERIAL COMPOUNDS AND METHODS OF USE THEREOF” (Wayne State University, priority 2016, published 2020).
In brackets after ≈: the same amount, converted by molar mass. Like-named read-outs stand apart in the source and are kept apart here. Each block holds one compound with its values, some of them ahead of it.

Assays:
[1] = system: 24 strains of S. aureus (SA1-SA24); assay: Broth micro-dilution MIC against 24 strains of S. aureus; format: cell-based; conditions: for MIC: Staphylococcus aureus, read-out: Compound MIC
Method: Compounds were tested for their anti-bacterial activity against 56 clinical isolates including 24 clinical isolates of methicillin resistant S. aureus (MRSA) and methicillin-susceptible S. aureus (MSSA), 8 strains of Enterococcus, 8 strains of Acinetobacter baumannii, 8 strains of Klebsiella pneumoniae, and 8 strains of Pseudomonas aeruginosa using a standard broth micro-dilution method as recommended by the Clinical and Laboratory Standard Institute (CLSI, M100, s23).
HN18 HN19, and HN34 were tested by a broth micro-dilution method to determine their minimal inhibitory concentration (MIC) against 24 strains of S. aureus (SA1-SA24) (Table 2). […]. Furthermore, the results for HN18 and HN34 were consistent across four repeated experiments. […]

[2] = system: S. aureus clinical isolates; assay: Synergistic effect with oxacillin (oxacillin MIC alone and in presence of SIC); format: cell-based, Staphylococcus aureus; conditions: Staphylococcus aureus
Method: The synergistic effect (interaction) of HN18 and HN34 with different antibiotics against S. aureus clinical isolates was studied. The oxacillin MIC values of 8 clinical isolates of Staphylococcus aureus were determined. The oxacillin MIC of the same isolates were also determined after they were exposed to SIC of HN18, HN34 (Table 5). […] Column 2 and 3 show the oxacillin MIC value of the same isolates in presence of SIC of HN18 and HN34 respectively.

[3] = system: S. aureus isolates; conditions: for MIC: Staphylococcus aureus

MIC ([1]; isolate SA1, experiment I): 1 µg/mL (≈ 2.03 µM)
MIC ([1]; isolate SA1, experiment II): 8 µg/mL (≈ 16.2 µM)
MIC ([1]; isolate SA1, experiment III): 8 µg/mL (≈ 16.2 µM)
MIC ([1]; isolate SA1, experiment IV): 16 µg/mL (≈ 32.5 µM)
MIC ([1]; isolate SA2, experiment I): 1 µg/mL (≈ 2.03 µM)
MIC ([1]; isolate SA2, experiment II): 4 µg/mL (≈ 8.12 µM)
MIC ([1]; isolate SA2, experiment III): 4 µg/mL (≈ 8.12 µM)
MIC ([1]; isolate SA2, experiment IV): 8 µg/mL (≈ 16.2 µM)
MIC ([1]; isolate SA3, experiment I): 1 µg/mL (≈ 2.03 µM)
MIC ([1]; isolate SA3, experiment II): 4 µg/mL (≈ 8.12 µM)
MIC ([1]; isolate SA3, experiment III): 8 µg/mL (≈ 16.2 µM)
MIC ([1]; isolate SA3, experiment IV): 8 µg/mL (≈ 16.2 µM)
MIC ([1]; isolate SA4, experiment I): 2 µg/mL (≈ 4.06 µM)
MIC ([1]; isolate SA4, experiment II): 4 µg/mL (≈ 8.12 µM)
MIC ([1]; isolate SA4, experiment III): 8 µg/mL (≈ 16.2 µM)
MIC ([1]; isolate SA4, experiment IV): 1 µg/mL (≈ 2.03 µM)
MIC ([1]; isolate SA5, experiment I): 0.5 µg/mL (≈ 1.02 µM)
MIC ([1]; isolate SA5, experiment II): 2 µg/mL (≈ 4.06 µM)
MIC ([1]; isolate SA5, experiment III): 4 µg/mL (≈ 8.12 µM)
MIC ([1]; isolate SA5, experiment IV): 8 µg/mL (≈ 16.2 µM)
MIC ([1]; isolate SA6, experiment I): 0.5 µg/mL (≈ 1.02 µM)
MIC ([1]; isolate SA6, experiment II): 4 µg/mL (≈ 8.12 µM)
MIC ([1]; isolate SA6, experiment III): 4 µg/mL (≈ 8.12 µM)
MIC ([1]; isolate SA6, experiment IV): 8 µg/mL (≈ 16.2 µM)
MIC ([1]; isolate SA7, experiment I): 0.5 µg/mL (≈ 1.02 µM)
MIC ([1]; isolate SA7, experiment II): 4 µg/mL (≈ 8.12 µM)
MIC ([1]; isolate SA7, experiment III): 4 µg/mL (≈ 8.12 µM)
MIC ([1]; isolate SA7, experiment IV): 8 µg/mL (≈ 16.2 µM)
MIC ([1]; isolate SA8, experiment I): 0.5 µg/mL (≈ 1.02 µM)
MIC ([1]; isolate SA8, experiment II): 4 µg/mL (≈ 8.12 µM)
MIC ([1]; isolate SA8, experiment III): 8 µg/mL (≈ 16.2 µM)
MIC ([1]; isolate SA8, experiment IV): 8 µg/mL (≈ 16.2 µM)
MIC ([1]; isolate SA9, experiment I): 0.5 µg/mL (≈ 1.02 µM)
MIC ([1]; isolate SA9, experiment II): 0.5 µg/mL (≈ 1.02 µM)
MIC ([1]; isolate SA10, experiment I): 2 µg/mL (≈ 4.06 µM)
MIC ([1]; isolate SA10, experiment II): 4 µg/mL (≈ 8.12 µM)
MIC ([1]; isolate SA11, experiment I): 1 µg/mL (≈ 2.03 µM)
MIC ([1]; isolate SA11, experiment II): 2 µg/mL (≈ 4.06 µM)
MIC ([1]; isolate SA12, experiment I): 2 µg/mL (≈ 4.06 µM)
MIC ([1]; isolate SA12, experiment II): 4 µg/mL (≈ 8.12 µM)
MIC ([1]; isolate SA13, experiment I): 1 µg/mL (≈ 2.03 µM)
MIC ([1]; isolate SA13, experiment II): 4 µg/mL (≈ 8.12 µM)
MIC ([1]; isolate SA14, experiment I): 2 µg/mL (≈ 4.06 µM)
MIC ([1]; isolate SA14, experiment II): 2 µg/mL (≈ 4.06 µM)
MIC ([1]; isolate SA15, experiment I): 1 µg/mL (≈ 2.03 µM)
MIC ([1]; isolate SA15, experiment II): 1 µg/mL (≈ 2.03 µM)
MIC ([1]; isolate SA16, experiment I): 0.25 µg/mL (≈ 0.508 µM)
MIC ([1]; isolate SA16, experiment II): 0.5 µg/mL (≈ 1.02 µM)
MIC ([1]; isolate SA17, experiment I): 2 µg/mL (≈ 4.06 µM)
MIC ([1]; isolate SA17, experiment II): 4 µg/mL (≈ 8.12 µM)
MIC ([1]; isolate SA18, experiment I): 1 µg/mL (≈ 2.03 µM)
MIC ([1]; isolate SA18, experiment II): 4 µg/mL (≈ 8.12 µM)
MIC ([1]; isolate SA19, experiment I): 1 µg/mL (≈ 2.03 µM)
MIC ([1]; isolate SA19, experiment II): 4 µg/mL (≈ 8.12 µM)
MIC ([1]; isolate SA20, experiment I): 1 µg/mL (≈ 2.03 µM)
MIC ([1]; isolate SA20, experiment II): 4 µg/mL (≈ 8.12 µM)
MIC ([1]; isolate SA21, experiment I): 2 µg/mL (≈ 4.06 µM)
MIC ([1]; isolate SA21, experiment II): 8 µg/mL (≈ 16.2 µM)
MIC ([1]; isolate SA22, experiment I): 2 µg/mL (≈ 4.06 µM)
MIC ([1]; isolate SA22, experiment II): 4 µg/mL (≈ 8.12 µM)
MIC ([1]; isolate SA23, experiment I): 2 µg/mL (≈ 4.06 µM)
MIC ([1]; isolate SA23, experiment II): 4 µg/mL (≈ 8.12 µM)
MIC ([1]; isolate SA24, experiment I): 1 µg/mL (≈ 2.03 µM)
MIC ([1]; isolate SA24, experiment II): 4 µg/mL (≈ 8.12 µM)
SMILES: COc1cc(/C=C/C(=O)C(=Cc2ccc(F)c(F)c2)C(=O)/C=C/c2ccc(O)c(OC)c2)ccc1O [HN19, (1E,6E)-1,7-bis(4-hydroxy-3-methoxyphenyl)hepta-1,6-diene{4(3,4 difluorobenzylidene)}-3,5-dione]
Effect against the panel of S. aureus strains ([1]; 24 strains SA1-SA24, broth micro-dilution): effective

SMILES: Cc1onc(-c2ccccc2)c1C(=O)N[C@@H]1C(=O)N2[C@@H]1SC(C)(C)[C@@H]2C(=O)O [Oxacillin, reference compound]
MIC ([2]; isolate SA3, oxacillin tested alone): > 16 µg/mL
MIC ([2]; isolate SA4, oxacillin tested alone): > 16 µg/mL
MIC ([2]; isolate SA5, oxacillin tested alone): > 16 µg/mL
MIC ([2]; isolate SA9, oxacillin tested alone): > 16 µg/mL
MIC ([2]; isolate SA10, oxacillin tested alone): 16 µg/mL
MIC ([2]; isolate SA11, oxacillin tested alone): 8 µg/mL
MIC ([2]; isolate SA15, oxacillin tested alone): > 16 µg/mL
MIC ([2]; isolate SA18, oxacillin tested alone): > 16 µg/mL
MIC ([3]; read-out: Oxacillin MIC): > 16 µg/mL
Oxacillin MIC ([3]; isolates SA1, SA2, prior to exposure to sub-inhibitory concentration of HN18 and HN34): > 16 µg/mL

SMILES: O=C(N[C@H](CO)[C@H](O)c1ccc([N+](=O)[O-])cc1)C(Cl)Cl [chloramphenicol]
MIC ([3]; read-out: Chloramphenicol MIC): > 40 µg/mL
